Measured values from PMC5187537, “Antioxidant Activity of Oat Proteins Derived Peptides in Stressed Hepatic HepG2 Cells” (Antioxidants, 2016).
Peptide text beside a SMILES is read from it.

Key:
Type in all cases: cell-based, Human
[1] = test system: HepG2 cells; experiment: MTT cytotoxicity assay; details: 24 h
Method: Human hepatocellular carcinoma (HepG2) cells were purchased from the American Type Culture Collection (ATCC; Manassas, VA, USA). They were cultured at 37 °C in a humidified incubator with 5% CO2 and 95% air. Dulbecco’s Minimal Essential Media (DMEM) supplemented with 10% (v/v) Fetal Bovine Serum was used for the maintenance of cells. […] The MTT (3-(4,5-dimethylthiazol-2-yl)-2,5-diphenyltetrazolium bromide) assay, as described in an earlier research, was used for cytotoxicity and cytoprotective tests. […] Following another 24 h incubation, cells were washed twice with 200 µL of PBS. Ten µL of MTT solution (5 mg/mL in PBS) and 100 µL of media were added to each well. After 1 h, MTT solution was removed, and 50 µL DMSO were added. Absorbances were recorded at 570 nm with 630 nm background subtraction using a BioTek Epoch™ microplate reader (Fisher Scientific, Nepean, ON, Canada). Untreated cells were used as negative control (NC) and cells treated with only AAPH were used as positive control (PC).

[2] = test system: superoxide dismutase (SOD); experiment: Superoxide dismutase activity of lysates of AAPH-stressed cells; details: 50 and 100 µM peptide 24 h, then AAPH 24 h
Method: (§1) Cells were seeded at 1 × 10^6 cells/plate in 60 mm tissue culture plates and allowed to grow for 24 h. In each plate, cells were washed twice with 4 mL of PBS (pH 7.2), and treated with 4 mL peptide samples (P1, P2, P6, P7) dissolved in culture media at 50 or 100 µM for 24 h. After removal of peptide solutions, cells were washed twice with 4 mL of PBS/plate and treated with 4 mL of […] dissolved in culture media and allowed to incubate for 24 h. Cells in each culture plate were harvested by incubation (5 min) with 0.5 mL of 0.25% trypsin, addition of 1 mL of culture media and centrifugation at 1000× g for 5 min. Cell pellets were washed with ice cold PBS (500 µL each) until no pink color was observed, re-suspended in ice cold PBS (300 µL) for the superoxide dismutase (SOD) assay, 500 µL for glutathione peroxidase (GPx) and catalase (CAT) assays. For total glutathione assay, 300 µL of 5% ice cold sulfosalicylic acid bubbled with 100% nitrogen was used for cell lysis. Cells were lysed by sonication on ice for 1 min using a probe-type sonicator (Vibra-Cell, Sonics and Materials Inc., Newtown, CT, USA) pulsing at 15 s on and 10 s off cycles. Following centrifugation of cell lysate at 13,000× g (4 °C), pellets containing cell debris were discarded, while supernatants were used for determination of glutathione content. Protein contents were determined using a modified Lowry assay.
The SOD activity was measured based on the rate of reduction of nitroblue tetrazolium (2.24 mM) to formazan by xanthine oxidase (13.2 U/mL) at 560 nm. Eight concentrations of each cell extract ([…] protein/mL) or SOD standard (2–500 ng/mL) were used to obtain inhibition curves. Specifically, 20 µL of cell sample, or buffer (blank) was mixed with 160 µL of assay solution, and 20 µL of xanthine oxidase was added to initiate the reaction. The reduction of nitroblue tetrazolium to blue formazan by O2^−• generated in situ was followed at 560 nm. SOD activities were calculated and expressed as units per milligram of protein.

[3] = test system: catalase (CAT); experiment: Catalase activity of lysates of AAPH-stressed cells; details: then AAPH 24 h; for Further increase of CAT activity compared to PC cells: 50 µM peptide 24 h
Method: as §1, with “assay. To measure the catalase activity, 1790 µL potassium phosphate buffer (50 mM, pH 7.0) was mixed with 200 µL cell lysate in a UV cuvette. Ten µL of H2O2 (30%) was added, and removal of H2O2 by catalase was followed at 240 nm using a Cary 50 Bio UV-Vis spectrophotometer with 18-cell changer (Varian Inc., Mississauga, ON, Canada). The activity was expressed as a percentage of control.” for “assay.”

[4] = test system: glutathione (GSH) of HepG2 cells; experiment: Cellular glutathione, enzymatic recycling method; details: 100 µM peptide 24 h, then AAPH 24 h, p < 0.05
Method: as §1
The assay was based on the enzymatic recycling method adjusted for 96-well plates. All solutions were prepared in sodium phosphate buffer (125 mM, pH 7.5) that contained 6.3 mM EDTA (ethylenediaminetetraacetic acid). In summary, 60 µL of 0.35 mM NADPH and 10 µL of 6 mM DTNB were added to wells, this was followed by the addition of 20 µL cell lysate or glutathione (GSH) standard. To initiate the reaction, 10 µL of glutathione reductase (5 IU/mL) was added and the rate of reaction between GSH from cell lysate and DTNB was measured at 412 nm. Total glutathione of cell lysates was calculated based on a standard curve of glutathione.

Compound | Effect on HepG2 cell viability compared to NC ([1]; 50 and 100 µM peptide, MTT, p > 0.05) | Effect on SOD activity compared to AAPH treated cells only (PC) [2] | Further increase of CAT activity compared to PC cells [3] [%] | GSH concentration relative to normal cells [4] | Increase in cell viability (growth promotion) ([1]; peptide alone, no AAPH, MTT (Figure 2A)) [fold] | Concentration above which cytotoxic ([1]; tested at 20–500 µM, MTT) | Effect on CAT activity ([3]; 100 µM peptide 24 h)
CC[C@H](C)[C@H](NC(=O)[C@H](Cc1ccc(O)cc1)NC(=O)[C@@H](NC(=O)[C@H](CC(C)C)NC(=O)CNC(=O)[C@@H]1CCCN1C(=O)[C@H](C)NC(=O)[C@H](CC(N)=O)NC(=O)[C@H](Cc1c[nH]cn1)NC(=O)[C@@H](N)Cc1ccc(O)cc1)C(C)C)C(=O)N[C@@H](CC(C)C)C(=O)O [P6] (H-YHNAPGLVYIL-OH; N-terminus and C-terminus assumed) | did not affect HepG2 cells viability | did not affect the activity | 60 | further increased | – | – | –
CC[C@H](C)[C@H](NC(=O)[C@H](Cc1ccc(O)cc1)NC(=O)[C@@H](NC(=O)[C@H](CC(C)C)NC(=O)CN)C(C)C)C(=O)N[C@@H](CC(C)C)C(=O)O [P2] (H-GLVYIL-OH; N-terminus and C-terminus assumed) | – | increase SOD to a level equivalent to that of normal cells | 60 | further increased | ~2.7 | above 450 µM | almost doubled
